The values below come from publication PMC6792352, “Limited Chemical Structural Diversity Found to Modulate Thyroid Hormone Receptor in the Tox21 Chemical Library” (Environmental Health Perspectives, 2019).

The CC50 is the concentration at which the toxic effect on the cells reaches its halfway point. Low values mean greater toxicity to the cells, high ones lower toxicity to the cells.

Each structure is given as a SMILES string. Counter-ions that a name gives are not always drawn. Positions of bridges follow the written chain, without caps; N, C: chain ends. Non-standard residues stand in square brackets, D forms with d. Residues, ends and D or L forms follow the SMILES beside them. hArg = N=C(N)NCCCC[C@H](N)C(=O)O; Mpa = O=C(O)CCS

The nature of one data set: in vitro. The settings on record: rat, gh3-tre-luc cells, AC50 (uM) modified / 1000.
On to `O=C(NCCCN1CCOCC1)c1ccc(Cl)cc1` [Eprobemide], for which the half-maximal cytotoxic concentration (CC50) at 24 h was over 50 µM.

`CCCCc1ncc(/C=C(\Cc2cccs2)C(=O)O)n1Cc1ccc(C(=O)O)cc1` [Eprosartan mesylate] came in with a 50% cytotoxic concentration (CC50) at 24 h of over 50 µM.

For the compound `N=C(N)NCCCC[C@@H]1NC(=O)CCSSC[C@@H](C(N)=O)NC(=O)[C@@H]2CCCN2C(=O)[C@H](Cc2c[nH]c3ccccc23)NC(=O)[C@H](CC(=O)O)NC(=O)CNC1=O` [Eptifibatide] ([Mpa][hArg]GDWPC-NH2; disulfide 1-7), the CC50 at 24 h was over 50 µM.

For `O=C(O)CSCC(=O)NC1CCSC1=O` (stereo not drawn) [Erdosteine], the CC50 at 24 h is over 50 µM.

`C#Cc1cccc(Nc2ncnc3cc(OCCOC)c(OCCOC)cc23)c1` [Erlotinib] had a CC50 at 24 h of over 50 µM.

As for `OC[C@@H](O)[C@@H](O)CO` [Erythritol], the CC50 at 24 h is over 90 µM.

The compound `CCOC(=O)CCC(=O)O[C@H]1[C@H](O[C@@H]2[C@@H](C)[C@H](O[C@H]3C[C@@](C)(OC)[C@@H](O)[C@H](C)O3)[C@@H](C)C(=O)O[C@H](CC)[C@@](C)(O)[C@H](O)[C@@H](C)C(=O)[C@H](C)C[C@@]2(C)O)O[C@H](C)C[C@@H]1N(C)C` [Erythromycin ethylsuccinate] displayed a CC50 at 24 h of over 50 µM.

Take `CCC(=O)O[C@H]1[C@H](O[C@@H]2[C@@H](C)[C@H](O[C@H]3C[C@@](C)(OC)[C@@H](O)[C@H](C)O3)[C@@H](C)C(=O)O[C@H](CC)[C@@](C)(O)[C@H](O)[C@@H](C)C(=O)[C@H](C)C[C@@]2(C)O)O[C@H](C)C[C@@H]1N(C)C` [Erythromycin propionate]: the cytotoxic concentration (CC50) at 24 h turned out to be 13.1 µM.

In turn, `CC[C@H]1OC(=O)[C@H](C)[C@@H](O[C@H]2C[C@@](C)(OC)[C@@H](O)[C@H](C)O2)[C@H](C)[C@@H](O[C@@H]2O[C@H](C)C[C@H](N(C)C)[C@H]2O)[C@](C)(O)C[C@@H](C)C(=O)[C@H](C)[C@@H](O)[C@]1(C)O` [Erythromycin] came in with a cytotoxic concentration (CC50) at 24 h of over 70 µM.

With `O=C(CN1CCNCC1)NC1CCCCC1` [Esaprazole], the cytotoxic concentration (CC50) at 24 h was over 50 µM.

`CN(C)CCC[C@@]1(c2ccc(F)cc2)OCc2cc(C#N)ccc21` [Escitalopram oxalate] showed a CC50 at 24 h of over 50 µM.

On to `O=c1ccc2cc(O[C@@H]3O[C@H](CO)[C@@H](O)[C@H](O)[C@H]3O)c(O)cc2o1` [Esculin], for which the CC50 at 24 h was over 20 µM.

For the compound `CC(C)[C@H](C(=O)O[C@H](C#N)c1cccc(Oc2ccccc2)c1)c1ccc(Cl)cc1` [Esfenvalerate], the 50% cytotoxic concentration (CC50) at 24 h is over 90 µM.

Consider `COC(=O)CCc1ccc(OCC(O)CNC(C)C)cc1` (stereo not drawn) [Esmolol hydrochloride], for which the 50% cytotoxic concentration (CC50) at 24 h is over 50 µM.

`CC(=O)SCC(CC(=O)c1ccc(C)cc1)C(=O)O` (stereo not drawn) [Esonarimod] showed a CC50 at 24 h of over 50 µM.

In turn, `Clc1ccc2c(c1)C(c1ccccc1)=NCc1nncn1-2` [Estazolam] gave a CC50 at 24 h of over 50 µM.

Regarding `CC(=O)Oc1ccc2c(c1)CC[C@@H]1[C@@H]2CC[C@]2(C)[C@@H](O)CC[C@@H]12` [Estradiol acetate], the midpoint of cytotoxicity, the CC50 at 24 h, lay at 22.3 µM.

In turn, `C[C@]12CC[C@@H]3c4ccc(OC(=O)c5ccccc5)cc4CC[C@H]3[C@@H]1CC[C@@H]2O` [Estradiol benzoate] registered a half-maximal cytotoxic concentration (CC50) at 24 h of over 50 µM.

The compound `CCC(=O)Oc1ccc2c(c1)CC[C@@H]1[C@@H]2CC[C@]2(C)[C@@H](OC(=O)CC)CC[C@@H]12` [Estradiol dipropionate] yielded a cytotoxic concentration (CC50) at 24 h of over 50 µM.

Take `CCCCCCC(=O)O[C@H]1CC[C@H]2[C@@H]3CCc4cc(O)ccc4[C@H]3CC[C@]12C` [Estradiol enanthate]: the CC50 at 24 h is over 50 µM.

The same data set, now with this note: rat, gh3-tre-luc cells, AC50 (uM) modified / 1000, Tox21_110001=Tox21_111183; viability, 1 nM T3 present, 24 h.
In turn, `CN1C[C@H](C(=O)N[C@]2(C)O[C@@]3(O)[C@@H]4CCCN4C(=O)[C@H](Cc4ccccc4)N3C2=O)C=C2c3cccc4[nH]cc(c34)C[C@H]21` [Ergotamine D-tartrate] returned a cytotoxic concentration (CC50) at 24 h of over 50 µM.

Still in this data set, the particulars now being: rat, gh3-tre-luc cells, AC50 (uM) modified / 1000, Tox21_110001=Tox21_112022; viability, 1 nM T3 present, 24 h.
The compound `C[C@@H](CO)NC(=O)[C@@H]1C=C2c3cccc4[nH]cc(c34)C[C@H]2N(C)C1` [Ergonovine] displayed a CC50 at 24 h of over 50 µM.

The data set is the same for the next values; noted with them: rat, gh3-tre-luc cells, AC50 (uM) modified / 1000, Tox21_110001=Tox21_201705; viability, 1 nM T3 present, 24 h.
In turn, `CN1C[C@H](C(=O)N[C@]2(C)O[C@@]3(O)[C@@H]4CCCN4C(=O)[C@H](Cc4ccccc4)N3C2=O)C=C2c3cccc4[nH]cc(c34)C[C@H]21` [Ergotamine D-tartrate] gave a cytotoxic concentration (CC50) at 24 h of over 90 µM.

The data set is the same for the next values; noted with them: rat, gh3-tre-luc cells, AC50 (uM) modified / 1000, Tox21_110001=Tox21_303182; viability, 1 nM T3 present, 24 h.
In the case of `CN1C[C@H](C(=O)N[C@]2(C)O[C@@]3(O)[C@@H]4CCCN4C(=O)[C@H](Cc4ccccc4)N3C2=O)C=C2c3cccc4[nH]cc(c34)C[C@H]21` [Ergotamine D-tartrate], the CC50 at 24 h is over 40 µM.
